Laboratory results reported in ChEMBL document CHEMBL1156863, “Synthesis of 1-(D-glucopyranosyl)-1,2,3-triazoles and their evaluation as glycogen phosphorylase inhibitors” (Bioorg Med Chem, 2010).

The compounds below were run against T1, Glycogen phosphorylase, muscle form (Oryctolagus cuniculus, UniProt P00489) (assay: Inhibition of rabbit skeletal muscle glycogen phosphorylase b by Dixon plot).
T1 sequence (P00489 whole entry): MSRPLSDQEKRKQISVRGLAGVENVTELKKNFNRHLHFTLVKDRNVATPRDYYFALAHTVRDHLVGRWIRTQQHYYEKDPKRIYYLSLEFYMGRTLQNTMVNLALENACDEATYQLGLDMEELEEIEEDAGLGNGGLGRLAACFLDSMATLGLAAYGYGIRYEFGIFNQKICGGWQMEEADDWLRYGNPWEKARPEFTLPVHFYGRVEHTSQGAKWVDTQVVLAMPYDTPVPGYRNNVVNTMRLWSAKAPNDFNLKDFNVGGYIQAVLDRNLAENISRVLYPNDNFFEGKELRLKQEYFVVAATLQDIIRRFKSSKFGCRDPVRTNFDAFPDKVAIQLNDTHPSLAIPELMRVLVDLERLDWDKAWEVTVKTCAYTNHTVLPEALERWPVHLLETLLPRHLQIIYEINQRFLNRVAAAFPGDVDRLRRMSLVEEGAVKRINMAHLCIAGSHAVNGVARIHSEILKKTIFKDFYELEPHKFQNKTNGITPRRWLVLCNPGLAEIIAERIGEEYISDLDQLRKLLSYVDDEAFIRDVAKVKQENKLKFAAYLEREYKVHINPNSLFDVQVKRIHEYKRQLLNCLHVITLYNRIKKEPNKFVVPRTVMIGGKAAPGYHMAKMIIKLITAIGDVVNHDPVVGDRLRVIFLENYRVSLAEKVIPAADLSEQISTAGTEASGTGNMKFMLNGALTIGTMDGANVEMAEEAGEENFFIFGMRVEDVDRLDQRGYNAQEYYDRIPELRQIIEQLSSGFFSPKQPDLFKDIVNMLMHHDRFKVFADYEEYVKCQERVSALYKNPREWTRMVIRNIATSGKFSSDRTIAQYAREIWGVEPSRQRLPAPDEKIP

Row | SMILES | Ki [µM]
1 | COC(=O)N[C@]1(C(N)=O)O[C@H](CO)[C@@H](O)[C@H](O)[C@H]1O | 16
2 | OC[C@H]1O[C@@H](n2cc(-c3ccc4ccccc4c3)nn2)[C@H](O)[C@@H](O)[C@@H]1O | 36
3 | OC[C@H]1O[C@@H](n2cc(-c3ccccc3)nn2)[C@H](O)[C@@H](O)[C@@H]1O | 162
4 | OCc1cn([C@@H]2O[C@H](CO)[C@@H](O)[C@H](O)[C@H]2O)nn1 | 26
5 | O=C(CO)N[C@@H]1O[C@H](CO)[C@@H](O)[C@H](O)[C@H]1O | 20

Each compound was assayed against T1, Glycogen phosphorylase, muscle form.

Row | SMILES | Ki [µM]
6 | COC(=O)N[C@]1(C(N)=O)O[C@H](CO)[C@@H](O)[C@H](O)[C@H]1O | 16
7 | NC(=O)[C@H]1O[C@H](CO)[C@@H](O)[C@H](O)[C@H]1O | 370
8 | CC(=O)N[C@]1(C(N)=O)O[C@H](CO)[C@@H](O)[C@H](O)[C@H]1O | 310
9 | COCC(=O)N[C@@H]1O[C@H](CO)[C@@H](O)[C@H](O)[C@H]1O | 210
10 | O=C(Cc1ccccc1)N[C@@H]1O[C@H](CO)[C@@H](O)[C@H](O)[C@H]1O | 1100
11 | O=C(NC1O[C@H](CO)[C@@H](O)[C@H](O)[C@H]1O)c1ccccc1 (single isomer, unassigned) | 144

The compounds below were run against T1, Glycogen phosphorylase, muscle form (assay: Inhibition of rabbit skeletal muscle glycogen phosphorylase b by Lineweaver-Burke plot analysis).

Row | SMILES | IC50 [µM]
12 | NOC(=O)c1cn([C@@H]2O[C@H](CO)[C@@H](O)[C@H](O)[C@H]2O)nn1 | 350
13 | OC[C@H]1O[C@@H](n2cc(-c3cccc4ccccc34)nn2)[C@H](O)[C@@H](O)[C@@H]1O | 625
14 | OC[C@H]1O[C@@H](n2cc(Cc3ccccc3)nn2)[C@H](O)[C@@H](O)[C@@H]1O | 600
15 | OCc1cn([C@H]2O[C@H](CO)[C@@H](O)[C@H](O)[C@H]2O)nn1 | 670
16 | COC(=O)c1cn([C@@H]2O[C@H](CO)[C@@H](O)[C@H](O)[C@H]2O)nn1 | 500
17 | O=C(O)c1cn([C@H]2O[C@H](CO)[C@@H](O)[C@H](O)[C@H]2O)nn1 | 400
18 | NC(=O)[C@@]1(n2cc(-c3ccc4ccccc4c3)nn2)O[C@H](CO)[C@@H](O)[C@H](O)[C@H]1O | 780
